Test results published in article PMC10327353 (Breast Cancer Research : BCR, 2023).

Experiment: Phase 1 study: safety and tolerability
Type: in vivo
Procedure: The maximum tolerated dose (MTD) of DZD1516 was defined based on safety data and the Bayesian optimal interval (BOIN) design (Additional file 1). The definition of DLT is provided in Additional file 1.
The AE grading was assessed according to the NCI-Common Terminology Criteria for Adverse Events (CTCAE) (version 5.0) and was monitored until 28 days after the last dose.
Eligible patients received single oral dosing of DZD1516 on Cycle 0 Day 1 (C0D1), followed by a 7-day washout. Twice daily oral dosing (bid) of DZD1516 was commenced from C1D1 in a continuous 21-day cycle until disease progression, unacceptable toxicity, or withdrawal of consent. All doses were taken under fed conditions (within 30 minutes after a meal).
Planned dosing consisted of 25, 50, 100, 200, 300, and 400 mg. Each dose escalation cohort will comprise a minimum of three and a maximum of six evaluable patients (except only one patient in the starting dose cohort). The maximum tolerated dose of DZD1516 was defined according to safety data and the Bayesian optimal interval (BOIN) design. Dose escalation/de-escalation rule with target toxicity rate for the MTD is 0.30 with interval of (0.20, 0.33).
DLTs were any adverse event (AE) not clearly attributable to the patient’s disease, including ≥ grade 4 hematological toxicities present for ≥ 4 days, grade 3 thrombocytopenia with bleeding, or grade 4 thrombocytopenia lasting for > 5 days, ≥ grade 3 non-hematological toxicities that is dose-limiting in the judgment of the investigators. Any other toxicity that is greater than that at baseline, is clinically significant or unacceptable, and is judged to be a DLT by the SRC. Exceptions included alopecia of any grade and isolated grade 3 laboratory change without clinical sequelae or clinical significance.
Safety evaluations were conducted at screening, on Day 1, 8, and 15 of Cycle 1, on Day 1 of each subsequent treatment cycle, at the end-of-treatment visit, and clinically indicated. Safety assessments included clinical laboratory measurements (hematology, chemistry, coagulation, and urinalysis), electrocardiogram (ECG), Echocardiogram/MUGA scan, ECOG performance status, vital signs, and physical examinations.

Compound: COc1cc(O[C@H]2CCN(C)CC2(F)F)c2c(Nc3ccc(Oc4ccn5ncnc5c4)c(C)c3)ncnc2c1 [DZD1516]
- Nervous system disorders, Any Grade (50 mg (N = 4)): 1 (25.0) n (%)
- Nervous system disorders, ≥ Grade 3 (50 mg (N = 4)): 0 (0.0) n (%)
- Participants with any TEAE, Any Grade (50 mg (N = 4)): 3 (75.0) n (%)
- Participants with any TEAE, ≥ Grade 3 (50 mg (N = 4)): 0 (0.0) n (%)
- Platelet count decreased, Any Grade (50 mg (N = 4)): 1 (25.0) n (%)
- Platelet count decreased, ≥ Grade 3 (50 mg (N = 4)): 0 (0.0) n (%)
- Proteinuria, Any Grade (50 mg (N = 4)): 1 (25.0) n (%)
- Proteinuria, ≥ Grade 3 (50 mg (N = 4)): 0 (0.0) n (%)
- Renal and urinary disorders, Any Grade (50 mg (N = 4)): 1 (25.0) n (%)
- Renal and urinary disorders, ≥ Grade 3 (50 mg (N = 4)): 0 (0.0) n (%)
- Subjects with any TEAE (50 mg (N = 4)): 3 (75.0) n (%)
- Subjects with any drug-related TEAE (50 mg (N = 4)): 3 (75.0) n (%)
- Vomiting, Any Grade (50 mg (N = 4)): 0 (0.0) n (%)
- Vomiting, ≥ Grade 3 (50 mg (N = 4)): 0 (0.0) n (%)
- White blood cell count decreased, Any Grade (50 mg (N = 4)): 1 (25.0) n (%)
- White blood cell count decreased, ≥ Grade 3 (50 mg (N = 4)): 0 (0.0) n (%)
- Alanine aminotransferase increased, Any Grade (100 mg (N = 4)): 0 (0.0) n (%)
- Alanine aminotransferase increased, ≥ Grade 3 (100 mg (N = 4)): 0 (0.0) n (%)
- Anemia, Any Grade (100 mg (N = 4)): 1 (25.0) n (%)
- Anemia, ≥ Grade 3 (100 mg (N = 4)): 0 (0.0) n (%)
- Any TEAE: Grade 3 (100 mg (N = 4)): 1 (25.0) n (%)
- Any TEAE: Leading to death (100 mg (N = 4)): 0 (0.0) n (%)
- Any TEAE: Leading to dose reduction (100 mg (N = 4)): 0 (0.0) n (%)
- Any TEAE: Leading to treatment discontinuation (100 mg (N = 4)): 0 (0.0) n (%)
- Any TEAE: Leading to treatment interruption (100 mg (N = 4)): 1 (25.0) n (%)
- Any TEAE: SAE (100 mg (N = 4)): 1 (25.0) n (%)
- Aspartate aminotransferase increased, Any Grade (100 mg (N = 4)): 0 (0.0) n (%)
- Aspartate aminotransferase increased, ≥ Grade 3 (100 mg (N = 4)): 0 (0.0) n (%)
- Blood and lymphatic system disorders, Any Grade (100 mg (N = 4)): 1 (25.0) n (%)
- Blood and lymphatic system disorders, ≥ Grade 3 (100 mg (N = 4)): 0 (0.0) n (%)
- Blood bilirubin increased, Any Grade (100 mg (N = 4)): 0 (0.0) n (%)
- Blood bilirubin increased, ≥ Grade 3 (100 mg (N = 4)): 0 (0.0) n (%)
- Cardiac disorders, Any Grade (100 mg (N = 4)): 0 (0.0) n (%)
- Cardiac disorders, ≥ Grade 3 (100 mg (N = 4)): 0 (0.0) n (%)
- Constipation, Any Grade (100 mg (N = 4)): 1 (25.0) n (%)
- Constipation, ≥ Grade 3 (100 mg (N = 4)): 0 (0.0) n (%)
- Decreased appetite, Any Grade (100 mg (N = 4)): 1 (25.0) n (%)
- Decreased appetite, ≥ Grade 3 (100 mg (N = 4)): 0 (0.0) n (%)
- Dizziness, Any Grade (100 mg (N = 4)): 1 (25.0) n (%)
- Dizziness, ≥ Grade 3 (100 mg (N = 4)): 0 (0.0) n (%)
- Drug-related TEAE: Grade 3 (100 mg (N = 4)): 1 (25.0) n (%)
- Drug-related TEAE: Leading to death (100 mg (N = 4)): 0 (0.0) n (%)
- Drug-related TEAE: Leading to dose reduction (100 mg (N = 4)): 0 (0.0) n (%)
- Drug-related TEAE: Leading to treatment discontinuation (100 mg (N = 4)): 0 (0.0) n (%)
- Drug-related TEAE: Leading to treatment interruption (100 mg (N = 4)): 1 (25.0) n (%)
- Drug-related TEAE: SAE (100 mg (N = 4)): 1 (25.0) n (%)
- Fatigue, Any Grade (100 mg (N = 4)): 1 (25.0) n (%)
- Fatigue, ≥ Grade 3 (100 mg (N = 4)): 0 (0.0) n (%)
- Gastrointestinal disorders, Any Grade (100 mg (N = 4)): 2 (50.0) n (%)
- Gastrointestinal disorders, ≥ Grade 3 (100 mg (N = 4)): 1 (25.0) n (%)
- General disorders and administration site conditions, Any Grade (100 mg (N = 4)): 1 (25.0) n (%)
- General disorders and administration site conditions, ≥ Grade 3 (100 mg (N = 4)): 0 (0.0) n (%)
- Headache, Any Grade (100 mg (N = 4)): 2 (50.0) n (%)
- Headache, ≥ Grade 3 (100 mg (N = 4)): 0 (0.0) n (%)
- Hemoglobin decreased, Any Grade (100 mg (N = 4)): 0 (0.0) n (%)
- Hemoglobin decreased, ≥ Grade 3 (100 mg (N = 4)): 0 (0.0) n (%)
- Investigations, Any Grade (100 mg (N = 4)): 3 (75.0) n (%)
- Investigations, ≥ Grade 3 (100 mg (N = 4)): 1 (25.0) n (%)
- Lipase increased, Any Grade (100 mg (N = 4)): 0 (0.0) n (%)
- Lipase increased, ≥ Grade 3 (100 mg (N = 4)): 0 (0.0) n (%)
- Malaise, Any Grade (100 mg (N = 4)): 0 (0.0) n (%)
- Malaise, ≥ Grade 3 (100 mg (N = 4)): 0 (0.0) n (%)
- Metabolism and nutrition disorders, Any Grade (100 mg (N = 4)): 3 (75.0) n (%)
- Metabolism and nutrition disorders, ≥ Grade 3 (100 mg (N = 4)): 0 (0.0) n (%)
- Musculoskeletal and connective tissue disorders, Any Grade (100 mg (N = 4)): 0 (0.0) n (%)
- Musculoskeletal and connective tissue disorders, ≥ Grade 3 (100 mg (N = 4)): 0 (0.0) n (%)
- Nausea, Any Grade (100 mg (N = 4)): 0 (0.0) n (%)
- Nausea, ≥ Grade 3 (100 mg (N = 4)): 0 (0.0) n (%)
- Nervous system disorders, Any Grade (100 mg (N = 4)): 3 (75.0) n (%)
- Nervous system disorders, ≥ Grade 3 (100 mg (N = 4)): 0 (0.0) n (%)
- Participants with any TEAE, Any Grade (100 mg (N = 4)): 4 (100.0) n (%)
- Participants with any TEAE, ≥ Grade 3 (100 mg (N = 4)): 1 (25.0) n (%)
- Platelet count decreased, Any Grade (100 mg (N = 4)): 1 (25.0) n (%)
- Platelet count decreased, ≥ Grade 3 (100 mg (N = 4)): 0 (0.0) n (%)
- Proteinuria, Any Grade (100 mg (N = 4)): 0 (0.0) n (%)
- Proteinuria, ≥ Grade 3 (100 mg (N = 4)): 0 (0.0) n (%)
- Renal and urinary disorders, Any Grade (100 mg (N = 4)): 1 (25.0) n (%)
- Renal and urinary disorders, ≥ Grade 3 (100 mg (N = 4)): 0 (0.0) n (%)
- Subjects with any TEAE (100 mg (N = 4)): 4 (100.0) n (%)
- Subjects with any drug-related TEAE (100 mg (N = 4)): 4 (100.0) n (%)
- Vomiting, Any Grade (100 mg (N = 4)): 2 (50.0) n (%)
- Vomiting, ≥ Grade 3 (100 mg (N = 4)): 1 (25.0) n (%)
- White blood cell count decreased, Any Grade (100 mg (N = 4)): 0 (0.0) n (%)
- White blood cell count decreased, ≥ Grade 3 (100 mg (N = 4)): 0 (0.0) n (%)
- Alanine aminotransferase increased, Any Grade (200 mg (N = 5)): 0 (0.0) n (%)
- Alanine aminotransferase increased, ≥ Grade 3 (200 mg (N = 5)): 0 (0.0) n (%)
- Anemia, Any Grade (200 mg (N = 5)): 1 (20.0) n (%)
- Anemia, ≥ Grade 3 (200 mg (N = 5)): 0 (0.0) n (%)
- Any TEAE: Grade 3 (200 mg (N = 5)): 1 (20.0) n (%)
- Any TEAE: Leading to death (200 mg (N = 5)): 0 (0.0) n (%)
- Any TEAE: Leading to dose reduction (200 mg (N = 5)): 0 (0.0) n (%)
- Any TEAE: Leading to treatment discontinuation (200 mg (N = 5)): 0 (0.0) n (%)
- Any TEAE: Leading to treatment interruption (200 mg (N = 5)): 0 (0.0) n (%)
- Any TEAE: SAE (200 mg (N = 5)): 0 (0.0) n (%)
- Aspartate aminotransferase increased, Any Grade (200 mg (N = 5)): 1 (20.0) n (%)
- Aspartate aminotransferase increased, ≥ Grade 3 (200 mg (N = 5)): 0 (0.0) n (%)
- Blood and lymphatic system disorders, Any Grade (200 mg (N = 5)): 1 (20.0) n (%)
- Blood and lymphatic system disorders, ≥ Grade 3 (200 mg (N = 5)): 0 (0.0) n (%)
- Blood bilirubin increased, Any Grade (200 mg (N = 5)): 2 (40.0) n (%)
- Blood bilirubin increased, ≥ Grade 3 (200 mg (N = 5)): 0 (0.0) n (%)
- Cardiac disorders, Any Grade (200 mg (N = 5)): 1 (20.0) n (%)
- Cardiac disorders, ≥ Grade 3 (200 mg (N = 5)): 0 (0.0) n (%)
- Constipation, Any Grade (200 mg (N = 5)): 1 (20.0) n (%)
- Constipation, ≥ Grade 3 (200 mg (N = 5)): 0 (0.0) n (%)
- Decreased appetite, Any Grade (200 mg (N = 5)): 0 (0.0) n (%)
- Decreased appetite, ≥ Grade 3 (200 mg (N = 5)): 0 (0.0) n (%)
- Dizziness, Any Grade (200 mg (N = 5)): 0 (0.0) n (%)
- Dizziness, ≥ Grade 3 (200 mg (N = 5)): 0 (0.0) n (%)
- Drug-related TEAE: Grade 3 (200 mg (N = 5)): 1 (20.0) n (%)
- Drug-related TEAE: Leading to death (200 mg (N = 5)): 0 (0.0) n (%)
- Drug-related TEAE: Leading to dose reduction (200 mg (N = 5)): 0 (0.0) n (%)
- Drug-related TEAE: Leading to treatment discontinuation (200 mg (N = 5)): 0 (0.0) n (%)
- Drug-related TEAE: Leading to treatment interruption (200 mg (N = 5)): 0 (0.0) n (%)
- Drug-related TEAE: SAE (200 mg (N = 5)): 0 (0.0) n (%)
- Fatigue, Any Grade (200 mg (N = 5)): 1 (20.0) n (%)
- Fatigue, ≥ Grade 3 (200 mg (N = 5)): 0 (0.0) n (%)
- Gastrointestinal disorders, Any Grade (200 mg (N = 5)): 3 (60.0) n (%)
- Gastrointestinal disorders, ≥ Grade 3 (200 mg (N = 5)): 0 (0.0) n (%)
- General disorders and administration site conditions, Any Grade (200 mg (N = 5)): 2 (40.0) n (%)
- General disorders and administration site conditions, ≥ Grade 3 (200 mg (N = 5)): 0 (0.0) n (%)
- Headache, Any Grade (200 mg (N = 5)): 1 (20.0) n (%)
